Where two headings read alike, the source gives them in different places.
What was measured:
SARS-CoV-2 USA-WA1/2020 [1] = assay: microbe, parasite or virus in culture; format: cell-based; settings: read-out: SARS-CoV-2 EC50
HIV-1 = settings: cited from earlier work
[2] = tested on: subdomain IIB of the rev recognition element (RRE) of the HIV-1 genomic RNA; settings: cited from earlier work
in vitro [3] = settings: African green monkey, uninfected Vero E6 cells
SARS-CoV-2 USA-WA1/2020 [4] = assay: microbe, parasite or virus in culture; format: cell-based; settings: read-out: SARS-CoV-2 EC50; remark: listed apart in the source
in vitro [5] = settings: human, uninfected 293T-ACE2 cells
SCoV2 USA-WA1/2020 = format: cell-based; settings: 293T-ACE2, MOI 2, 8-h single cycle
SCoV2 RNA elements = assay: ligand-based 1H NMR (1D, CPMG, wLOGSY), six RNA elements compared; format: binding, SARS-CoV-2; settings: CSP, LB, CPMG and wLOGSY perturbations; 300 µM compound
Text: We first used ligand-based ^1H NMR experiments to analyze the interaction of the selected compounds with each of the six RNA elements specified above, including one-dimensional, Carr–Purcell–Meiboom–Gill (CPMG) and waterLOGSY (wLOGSY) experiments. These assays detect changes in the ^1H signals of the ligand upon RNA association (Figure 4A), and have been successfully used to evaluate small-molecule binding to RNA motifs, including elements of the SCoV2 genome.
Each ligand (at a concentration of 300 μM) was mixed with a smaller quantity of RNA in an aqueous solution containing 25 mM potassium phosphate (pH 6.2), 150 mM KCl, 3 mM MgCl2, and 10% D2O. RNA–ligand molar ratios of 1:50 and 1:100 were explored (with 6 and 3 μM RNA, respectively). […] The water signal was suppressed from one-dimensional experiments with a watergate sequence. The CPMG experiments were acquired with 100, 200, 300, and 400 ms relaxation delays before acquisition, and water suppression was achieved by presaturation. wLOGSY experiments employed a selective Gaussian 180° pulse at the water frequency and an NOE mixing time of 1.5 s and suppressed the water signal by excitation sculpting. All spectra were acquired in the absence and presence of RNA.
All ligand signals were individually analyzed. For clomiphene citrate, the signals corresponding to cis and trans forms were identified by comparing the spectrum of clomiphene citrate with those of the individual stereoisomers. In CPMG experiments, the binding of the compounds to the different RNA sequences was quantified as 100 minus the percentage of ligand signal area in the +RNA CPMG spectrum relative to the corresponding signal area in the -RNA CPMG spectrum. In wLOGSY experiments, binding was quantified with the LOGSY factor, or % of ligand signal in the difference spectrum between the +RNA and –RNA wLOGSY spectra, relative to the corresponding signal in the one-dimensional -RNA reference spectrum. In one-dimensional experiments, line broadening (LB) was quantified as explained for CPMG spectra.

[6] = Severe acute respiratory syndrome coronavirus 2, Vero C1008, 48 h, Vero E6 cells, MOI 0.025, two days
[7] = ref 3 (Table S1 list: Simba-Lahuasi et al., Unpublished results)
[8] = ref 1 (Table S1 list: Prado et al. 2016)
[9] = Vero E6 cells, MOI 0.025, two days
[10] = ref 2 (Table S1 list: Prado et al. 2018)
[11] = ref 4 (Table S1 list: Medina-Trillo et al. 2020)
[12] = Severe acute respiratory syndrome coronavirus 2, Vero C1008, 48 h
[13] = Severe acute respiratory syndrome coronavirus 2, 293T/ACE2, 48 h
[14] = ref 5 (Table S1 list: Sedgwick, Ph.D. thesis 2018)

## CCN(CC)CCOc1ccc(C(O)(Cc2ccc(Cl)cc2)c2ccc(C)cc2)cc1 (centres unmarked) [Triparanol, reference compound]
SARS-CoV-2 USA-WA1/2020 [1]; [6]
  EC50: 0.811 µM
HIV-1; [7]
  Previous target virus activity: yes
[2]; [7]
  Previous target RNA binding: yes
In vitro [3]
  CC50 at 2 days: > 20 µM

## O=C1c2c(O)ccc(O)c2C(=O)c2c(NCCNCCO)ccc(NCCNCCO)c21 [Mitoxantrone, reference compound]
SARS-CoV-2 USA-WA1/2020 [1]; [6]
  EC50: 2.4 µM
HIV-1; [8]
  Previous target virus activity: yes
[2]; [8]
  Previous target RNA binding: yes
In vitro [3]
  CC50 at 2 days: 0.806 µM

## CN(C)CCOc1cc2c(c3ccccc13)-c1ccccc1C2=O [1a]
SARS-CoV-2 USA-WA1/2020 [1]; [9]
  EC50: > 20 µM
HIV-1; [10]
  Previous target virus activity: yes
HIV-1; [11]
  Previous target virus activity: yes
[2]; [10]
  Previous target RNA binding: yes
[2]; [11]
  Previous target RNA binding: yes

## CN(C)CCOc1ccc(C(=C(CCO)c2ccccc2)c2ccccc2)cc1 [βOH-tamoxifen]
SARS-CoV-2 USA-WA1/2020 [1]; [6]
  EC50: 5.4 µM
HIV-1; ref Unpublished
  Previous target virus activity: yes
[2]; ref Unpublished
  Previous target RNA binding: yes
In vitro [3]
  CC50 at 2 days: 22.2 µM

## Fc1nc(N2CCNCC2)c(F)c(Sc2ccc(Cl)cc2)c1F [2a]
SARS-CoV-2 USA-WA1/2020 [1]; [12]
  EC50: 6.24 µM
SARS-CoV-2 USA-WA1/2020 [4]; [13]
  EC50: 0.63 µM
HIV-1; [10]
  Previous target virus activity: yes
[2]; [10]
  Previous target RNA binding: yes
In vitro [3]
  CC50 at 2 days: > 20 µM
In vitro [5]
  CC50 at 2 days: 5.32 µM

## CCC(=C(c1ccc(OC)cc1)c1ccc(OC)cc1)c1cn(CC(O)CN(C)C)c2ccccc12 (centres unmarked) [Bisphenylindol]
SARS-CoV-2 USA-WA1/2020 [1]; [6]
  EC50: 2.1 µM
HIV-1; [7]
  Previous target virus activity: yes
[2]; [7]
  Previous target RNA binding: yes

## CCC(=C(c1ccccc1)c1ccc(OCCN(C)C)cc1)c1ccc(O)cc1 [4'OH-tamoxifen]
SARS-CoV-2 USA-WA1/2020 [1]; [6]
  EC50: 0.74 µM
HIV-1; ref Unpublished
  Previous target virus activity: yes
[2]; ref Unpublished
  Previous target RNA binding: yes
In vitro [3]
  CC50 at 2 days: 2.7 µM

## CCC(CC)COC(=O)[C@H](C)N[P@](=O)(OC[C@H]1O[C@@](C#N)(c2ccc3c(N)ncnn23)[C@H](O)[C@@H]1O)Oc1ccccc1 [Remdesivir, reference compound]
SARS-CoV-2 USA-WA1/2020 [1]; [12]
  EC50: 0.428 µM
SARS-CoV-2 USA-WA1/2020 [4]; [13]
  EC50: 0.0104 µM
SCoV2 USA-WA1/2020
  inhibition when added at +4 h: decreased
In vitro [3]
  CC50 at 2 days: > 20 µM
In vitro [5]
  CC50 at 2 days: > 2 µM

## Cc1cc(-c2c(CCN)cccc2CCN)cc(C)c1-c1cc(CCCN)c(O)c(CCCN)c1 [compound 11]
SARS-CoV-2 USA-WA1/2020 [1]; [6]
  EC50: > 20 µM
HIV-1; [14]
  Previous target virus activity: yes
[2]; [14]
  Previous target RNA binding: yes
In vitro [3]
  CC50 at 2 days: > 20 µM

## CC1CN(C(c2ccccc2)(c2ccccc2)c2ccccc2)CCN1 (centres unmarked) [Trityl-piperazine]
SARS-CoV-2 USA-WA1/2020 [1]; [6]
  EC50: 0.644 µM
SARS-CoV-2 USA-WA1/2020 [4]; Severe acute respiratory syndrome coronavirus 2, 48 h, 293T-ACE2 cells, MOI 0.25, two days
  EC50: 0.27 µM
HIV-1; [7]
  Previous target virus activity: yes
[2]; [7]
  Previous target RNA binding: yes
In vitro [3]
  CC50 at 2 days: 2.22 µM
In vitro [5]
  CC50 at 2 days: > 3.67 µM

## Cc1cc(-c2c(CCN)cccc2CCN)cc(C)c1-c1cc(CCN)c(Oc2ccccc2)c(CCN)c1 [compound 6]
SARS-CoV-2 USA-WA1/2020 [1]; [6]
  EC50: > 20 µM
HIV-1; [14]
  Previous target virus activity: yes
[2]; [14]
  Previous target RNA binding: yes
In vitro [3]
  CC50 at 2 days: > 20 µM

## Trans-clomiphene
HIV-1; ref Unpublished
  Previous target virus activity: yes
[2]; ref Unpublished
  Previous target RNA binding: yes

## COc1ccc(-c2ccc(-c3ccc(O)c(CCN)c3)c(C)c2)c(CCN)c1 [compound 1]
SARS-CoV-2 USA-WA1/2020 [1]; [6]
  EC50: > 20 µM
[2]; [14]
  Previous target RNA binding: yes
In vitro [3]
  CC50 at 2 days: > 20 µM

## C=C(C)Cn1c(NCCCn2ccnc2)nc2c1c(=O)[nH]c(=O)n2C [17a5]
SARS-CoV-2 USA-WA1/2020 [1]; [6]
  EC50: > 20 µM
HIV-1; [10]
  Previous target virus activity: yes
[2]; [10]
  Previous target RNA binding: yes
In vitro [3]
  CC50 at 2 days: > 20 µM

## CCC(=C(c1ccccc1)c1ccc(OCCN(C)CCOc2ccc(C(=C(CC)c3ccccc3)c3ccccc3)cc2)cc1)c1ccccc1 [Tamoxifen dimer]
SARS-CoV-2 USA-WA1/2020 [1]; [6]
  EC50: > 20 µM
HIV-1; ref Unpublished
  Previous target virus activity: no
[2]; ref Unpublished
  Previous target RNA binding: yes
In vitro [3]
  CC50 at 2 days: > 20 µM

## Cc1cc(-c2cc(CCN)ccc2CCN)c(C)cc1-c1ccccc1CCN [compound 4]
SARS-CoV-2 USA-WA1/2020 [1]; [6]
  EC50: > 20 µM
HIV-1; [11]
  Previous target virus activity: yes
[2]; [11]
  Previous target RNA binding: yes
In vitro [3]
  CC50 at 2 days: > 20 µM

## OC(CNCC1CCCO1)Cn1c2ccc(Br)cc2c2cc(Br)ccc21 (centres unmarked) [1b]
HIV-1; [10]
  Previous target virus activity: yes
HIV-1; [11]
  Previous target virus activity: no
[2]; [10]
  Previous target RNA binding: yes
[2]; [11]
  Previous target RNA binding: yes

## COc1ccc(-c2cc(C)c(-c3cc(CCN)c(OC)cc3CCN)cc2C)cc1CCN [3a]
SARS-CoV-2 USA-WA1/2020 [1]; [6]
  EC50: > 20 µM
HIV-1; [11]
  Previous target virus activity: yes
[2]; [11]
  Previous target RNA binding: yes
In vitro [3]
  CC50 at 2 days: > 20 µM

## O=C(O)c1cn(C2CC2)c2cc(N3CCNCC3)c(F)cc2c1=O [Cyprofloxacine, reference compound]
SARS-CoV-2 USA-WA1/2020 [1]; [6]
  EC50: > 20 µM
HIV-1; [8]
  Previous target virus activity: yes
[2]; [8]
  Previous target RNA binding: yes

## Cc1cc(-c2c(CCNC(=N)N)cccc2CCNC(=N)N)cc(C)c1-c1cc(CCCNC(=N)N)cc(CCCNC(=N)N)c1 [compound 18]
SARS-CoV-2 USA-WA1/2020 [1]; [6]
  EC50: > 20 µM
HIV-1; [14]
  Previous target virus activity: yes
[2]; [14]
  Previous target RNA binding: yes
In vitro [3]
  CC50 at 2 days: > 20 µM

## CCN(CC)CCNc1cc(-c2cccs2)nc2ccccc12 [1d]
SARS-CoV-2 USA-WA1/2020 [1]; [6]
  EC50: 6.64 µM
SARS-CoV-2 USA-WA1/2020 [1]; [9]
  EC50: 6.24 µM
HIV-1; [10]
  Previous target virus activity: yes
[2]; [10]
  Previous target RNA binding: yes
In vitro [5]
  CC50 at 2 days: 7.5 µM

## Cis-clomiphene
SCoV2 RNA elements
  RNA binding preference: bound RNA with stronger affinity than the trans form
HIV-1; ref Unpublished
  Previous target virus activity: yes
[2]; ref Unpublished
  Previous target RNA binding: yes

## CN1CCC(=C2c3ccccc3C=Cc3ccccc32)CC1 [Cyprohetadine, reference compound]
HIV-1; [8]
  Previous target virus activity: yes
[2]; [8]
  Previous target RNA binding: yes
In vitro [3]
  CC50 at 2 days: > 20 µM

Reference: PMC9784969, “SARS-CoV-2 Inhibitors Identified by Phenotypic Analysis of a Collection of Viral RNA-Binding Molecules” (Pharmaceuticals, 2022)
